Assay results taken from ChEMBL document CHEMBL3137667, “[Drug-induced liver injury; fourteenth updated edition of the bibliographic database of liver injuries and related drugs]” (Gastroenterol Clin Biol, 2004).

Columns and labels:
[1] = Highest frequency of moderate liver toxicity observed during clinical trials, expressed as a percentage. [column '% BIOL' in source]; details: human
[2] = Highest frequency of acute liver toxicity observed during clinical trials, expressed as a percentage. [column '% AIGUE' in source]; details: human
[3] = human, serum
[4] = human, serum; remark: listed apart in the source
[5] = human
[6] = human; remark: listed apart in the source
[7] = human; remark: listed apart in the source
[8] = human, serum, 4383 h
[9] = human; remark: listed apart in the source
[10] = human; remark: listed apart in the source
[11] = human; remark: listed apart in the source
[12] = human; remark: listed apart in the source
[13] = human; remark: listed apart in the source
[14] = human; remark: listed apart in the source
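For Hepatotoxicity (association with vascular disease) in this document: count of indexed literature references reporting vascular liver injury in humans, e.g. peliosis hepatitis, hepatic veno-occlusive disease or Budd-Chiari syndrome.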
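For Hepatotoxicity (benign tumour) in this document: value is a count of indexed literature references citing a benign tumour confirmed by histopathology.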
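For Hepatotoxicity (choleostasis) in this document: human cholestatic liver injury, shown by histopathology or by peak ALT or AST elevation over alkaline phosphatase ratio below 2, value counts indexed literature reports.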
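For Hepatotoxicity (chronic liver disease) in this document: chronic liver injury confirmed by histopathology or persistently raised serum aminotransferase activity beyond 6 months, value given as the count of indexed literature references.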
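For Hepatotoxicity (cirrhosis) in this document: value is a count of indexed literature references reporting cirrhosis confirmed by histopathology.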
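For Hepatotoxicity (cytolytic) in this document: human cytolytic liver injury, shown by histopathology or by a ratio above 5 of peak ALT or AST elevation to alkaline phosphatase elevation, value counts indexed references.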
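For Hepatotoxicity (granulomatous hepatitis) in this document: value is a count of indexed literature references reporting granulomatous liver disease confirmed by histopathology.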
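For Hepatotoxicity (malignant tumour) in this document: malignant tumour confirmed by histopathology, value gives the count of indexed literature references reporting it.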
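For Hepatotoxicity (severe hepatitis) in this document: human clinical data: severe hepatitis, meaning potentially life-threatening liver failure or clinically observed cases, the value counts how many indexed literature references report it.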
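For Hepatotoxicity (steatosis) in this document: steatosis confirmed by histopathology, value is the count of indexed references.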

ADALIMUMAB
0: Hepatotoxicity (acute) [4] | Hepatotoxicity (cytolytic) [5] | Hepatotoxicity (choleostasis) [6] | Hepatotoxicity (severe hepatitis) [7] | Hepatotoxicity (chronic liver disease) [8] | Hepatotoxicity (cirrhosis) [9] | Hepatotoxicity (granulomatous hepatitis) [10] | Hepatotoxicity (association with vascular disease) [11] | Hepatotoxicity (steatosis) [12] | Hepatotoxicity (malignant tumour) [13] | Hepatotoxicity (benign tumour) [14]
1: Hepatotoxicity (moderate) [3]
0%: Hepatotoxicity (acute) [2]
12.1%: Hepatotoxicity (moderate) [1]

BEMIPARIN SODIUM
0: Hepatotoxicity (acute) [4] | Hepatotoxicity (cytolytic) [5] | Hepatotoxicity (choleostasis) [6] | Hepatotoxicity (severe hepatitis) [7] | Hepatotoxicity (chronic liver disease) [8] | Hepatotoxicity (cirrhosis) [9] | Hepatotoxicity (granulomatous hepatitis) [10] | Hepatotoxicity (association with vascular disease) [11] | Hepatotoxicity (steatosis) [12] | Hepatotoxicity (malignant tumour) [13] | Hepatotoxicity (benign tumour) [14]
0%: Hepatotoxicity (moderate) [1] | Hepatotoxicity (acute) [2]
1: Hepatotoxicity (moderate) [3]

CAPROMAB PENDETIDE
0: Hepatotoxicity (acute) [4] | Hepatotoxicity (cytolytic) [5] | Hepatotoxicity (choleostasis) [6] | Hepatotoxicity (severe hepatitis) [7] | Hepatotoxicity (chronic liver disease) [8] | Hepatotoxicity (cirrhosis) [9] | Hepatotoxicity (granulomatous hepatitis) [10] | Hepatotoxicity (association with vascular disease) [11] | Hepatotoxicity (steatosis) [12] | Hepatotoxicity (malignant tumour) [13] | Hepatotoxicity (benign tumour) [14]
1: Hepatotoxicity (moderate) [3]
< 1%: Hepatotoxicity (moderate) [1]
0%: Hepatotoxicity (acute) [2]

CHOLESTYRAMINE
30%: Hepatotoxicity (moderate) [1]
0%: Hepatotoxicity (acute) [2]
11: Hepatotoxicity (moderate) [3]
0: Hepatotoxicity (acute) [4] | Hepatotoxicity (cytolytic) [5] | Hepatotoxicity (choleostasis) [6] | Hepatotoxicity (severe hepatitis) [7] | Hepatotoxicity (chronic liver disease) [8] | Hepatotoxicity (cirrhosis) [9] | Hepatotoxicity (granulomatous hepatitis) [10] | Hepatotoxicity (association with vascular disease) [11] | Hepatotoxicity (steatosis) [12] | Hepatotoxicity (malignant tumour) [13] | Hepatotoxicity (benign tumour) [14]

COLISTIN
0: Hepatotoxicity (acute) [4] | Hepatotoxicity (cytolytic) [5] | Hepatotoxicity (choleostasis) [6] | Hepatotoxicity (severe hepatitis) [7] | Hepatotoxicity (chronic liver disease) [8] | Hepatotoxicity (cirrhosis) [9] | Hepatotoxicity (granulomatous hepatitis) [10] | Hepatotoxicity (association with vascular disease) [11] | Hepatotoxicity (steatosis) [12] | Hepatotoxicity (malignant tumour) [13] | Hepatotoxicity (benign tumour) [14]
1: Hepatotoxicity (moderate) [3]
0%: Hepatotoxicity (moderate) [1] | Hepatotoxicity (acute) [2]

DENILEUKIN DIFTITOX
0: Hepatotoxicity (choleostasis) [6] | Hepatotoxicity (severe hepatitis) [7] | Hepatotoxicity (chronic liver disease) [8] | Hepatotoxicity (cirrhosis) [9] | Hepatotoxicity (granulomatous hepatitis) [10] | Hepatotoxicity (association with vascular disease) [11] | Hepatotoxicity (steatosis) [12] | Hepatotoxicity (malignant tumour) [13] | Hepatotoxicity (benign tumour) [14]
3: Hepatotoxicity (moderate) [3]
1: Hepatotoxicity (acute) [4] | Hepatotoxicity (cytolytic) [5]
45%: Hepatotoxicity (moderate) [1]
10%: Hepatotoxicity (acute) [2]

EPOETIN ALFA
20%: Hepatotoxicity (moderate) [1]
0%: Hepatotoxicity (acute) [2]
0: Hepatotoxicity (acute) [4] | Hepatotoxicity (cytolytic) [5] | Hepatotoxicity (choleostasis) [6] | Hepatotoxicity (severe hepatitis) [7] | Hepatotoxicity (chronic liver disease) [8] | Hepatotoxicity (cirrhosis) [9] | Hepatotoxicity (granulomatous hepatitis) [10] | Hepatotoxicity (association with vascular disease) [11] | Hepatotoxicity (steatosis) [12] | Hepatotoxicity (malignant tumour) [13] | Hepatotoxicity (benign tumour) [14]
4: Hepatotoxicity (moderate) [3]

ETARACIZUMAB
0: Hepatotoxicity (acute) [4] | Hepatotoxicity (cytolytic) [5] | Hepatotoxicity (choleostasis) [6] | Hepatotoxicity (severe hepatitis) [7] | Hepatotoxicity (chronic liver disease) [8] | Hepatotoxicity (cirrhosis) [9] | Hepatotoxicity (granulomatous hepatitis) [10] | Hepatotoxicity (association with vascular disease) [11] | Hepatotoxicity (steatosis) [12] | Hepatotoxicity (malignant tumour) [13] | Hepatotoxicity (benign tumour) [14]
0%: Hepatotoxicity (acute) [2]
77.8%: Hepatotoxicity (moderate) [1]
1: Hepatotoxicity (moderate) [3]

GALLIUM
0: Hepatotoxicity (cytolytic) [5] | Hepatotoxicity (severe hepatitis) [7] | Hepatotoxicity (chronic liver disease) [8] | Hepatotoxicity (cirrhosis) [9] | Hepatotoxicity (granulomatous hepatitis) [10] | Hepatotoxicity (association with vascular disease) [11] | Hepatotoxicity (steatosis) [12] | Hepatotoxicity (malignant tumour) [13] | Hepatotoxicity (benign tumour) [14]
21.4%: Hepatotoxicity (acute) [2]
1: Hepatotoxicity (moderate) [3] | Hepatotoxicity (acute) [4] | Hepatotoxicity (choleostasis) [6]
28.6%: Hepatotoxicity (moderate) [1]

GENTAMICIN
7: Hepatotoxicity (moderate) [3]
14.3%: Hepatotoxicity (moderate) [1]
0: Hepatotoxicity (acute) [4] | Hepatotoxicity (cytolytic) [5] | Hepatotoxicity (choleostasis) [6] | Hepatotoxicity (severe hepatitis) [7] | Hepatotoxicity (chronic liver disease) [8] | Hepatotoxicity (cirrhosis) [9] | Hepatotoxicity (granulomatous hepatitis) [10] | Hepatotoxicity (association with vascular disease) [11] | Hepatotoxicity (steatosis) [12] | Hepatotoxicity (malignant tumour) [13] | Hepatotoxicity (benign tumour) [14]
0%: Hepatotoxicity (acute) [2]

INTERLEUKIN 1BETA
0%: Hepatotoxicity (acute) [2]
1: Hepatotoxicity (moderate) [3]
75%: Hepatotoxicity (moderate) [1]
0: Hepatotoxicity (acute) [4] | Hepatotoxicity (cytolytic) [5] | Hepatotoxicity (choleostasis) [6] | Hepatotoxicity (severe hepatitis) [7] | Hepatotoxicity (chronic liver disease) [8] | Hepatotoxicity (cirrhosis) [9] | Hepatotoxicity (granulomatous hepatitis) [10] | Hepatotoxicity (association with vascular disease) [11] | Hepatotoxicity (steatosis) [12] | Hepatotoxicity (malignant tumour) [13] | Hepatotoxicity (benign tumour) [14]

LENTINAN
2%: Hepatotoxicity (moderate) [1]
0: Hepatotoxicity (acute) [4] | Hepatotoxicity (cytolytic) [5] | Hepatotoxicity (choleostasis) [6] | Hepatotoxicity (severe hepatitis) [7] | Hepatotoxicity (chronic liver disease) [8] | Hepatotoxicity (cirrhosis) [9] | Hepatotoxicity (granulomatous hepatitis) [10] | Hepatotoxicity (association with vascular disease) [11] | Hepatotoxicity (steatosis) [12] | Hepatotoxicity (malignant tumour) [13] | Hepatotoxicity (benign tumour) [14]
2: Hepatotoxicity (moderate) [3]
0%: Hepatotoxicity (acute) [2]

LOBAPLATIN
3.7%: Hepatotoxicity (moderate) [1]
0: Hepatotoxicity (acute) [4] | Hepatotoxicity (cytolytic) [5] | Hepatotoxicity (choleostasis) [6] | Hepatotoxicity (severe hepatitis) [7] | Hepatotoxicity (chronic liver disease) [8] | Hepatotoxicity (cirrhosis) [9] | Hepatotoxicity (granulomatous hepatitis) [10] | Hepatotoxicity (association with vascular disease) [11] | Hepatotoxicity (steatosis) [12] | Hepatotoxicity (malignant tumour) [13] | Hepatotoxicity (benign tumour) [14]
0%: Hepatotoxicity (acute) [2]
1: Hepatotoxicity (moderate) [3]

NARTOGRASTIM
1: Hepatotoxicity (moderate) [3]
0: Hepatotoxicity (acute) [4] | Hepatotoxicity (cytolytic) [5] | Hepatotoxicity (choleostasis) [6] | Hepatotoxicity (severe hepatitis) [7] | Hepatotoxicity (chronic liver disease) [8] | Hepatotoxicity (cirrhosis) [9] | Hepatotoxicity (granulomatous hepatitis) [10] | Hepatotoxicity (association with vascular disease) [11] | Hepatotoxicity (steatosis) [12] | Hepatotoxicity (malignant tumour) [13] | Hepatotoxicity (benign tumour) [14]
0%: Hepatotoxicity (moderate) [1] | Hepatotoxicity (acute) [2]

NEDAPLATIN
19.2%: Hepatotoxicity (moderate) [1]
1: Hepatotoxicity (moderate) [3]
0%: Hepatotoxicity (acute) [2]
0: Hepatotoxicity (acute) [4] | Hepatotoxicity (cytolytic) [5] | Hepatotoxicity (choleostasis) [6] | Hepatotoxicity (severe hepatitis) [7] | Hepatotoxicity (chronic liver disease) [8] | Hepatotoxicity (cirrhosis) [9] | Hepatotoxicity (granulomatous hepatitis) [10] | Hepatotoxicity (association with vascular disease) [11] | Hepatotoxicity (steatosis) [12] | Hepatotoxicity (malignant tumour) [13] | Hepatotoxicity (benign tumour) [14]

NYSTATIN
0: Hepatotoxicity (choleostasis) [6] | Hepatotoxicity (severe hepatitis) [7] | Hepatotoxicity (chronic liver disease) [8] | Hepatotoxicity (cirrhosis) [9] | Hepatotoxicity (granulomatous hepatitis) [10] | Hepatotoxicity (association with vascular disease) [11] | Hepatotoxicity (steatosis) [12] | Hepatotoxicity (malignant tumour) [13] | Hepatotoxicity (benign tumour) [14]
3: Hepatotoxicity (moderate) [3]
33.3%: Hepatotoxicity (moderate) [1]
0%: Hepatotoxicity (acute) [2]
1: Hepatotoxicity (acute) [4] | Hepatotoxicity (cytolytic) [5]

PALIVIZUMAB
0%: Hepatotoxicity (acute) [2]
3.6%: Hepatotoxicity (moderate) [1]
0: Hepatotoxicity (acute) [4] | Hepatotoxicity (cytolytic) [5] | Hepatotoxicity (choleostasis) [6] | Hepatotoxicity (severe hepatitis) [7] | Hepatotoxicity (chronic liver disease) [8] | Hepatotoxicity (cirrhosis) [9] | Hepatotoxicity (granulomatous hepatitis) [10] | Hepatotoxicity (association with vascular disease) [11] | Hepatotoxicity (steatosis) [12] | Hepatotoxicity (malignant tumour) [13] | Hepatotoxicity (benign tumour) [14]
1: Hepatotoxicity (moderate) [3]

POLOXAMER
7.7%: Hepatotoxicity (moderate) [1]
0: Hepatotoxicity (acute) [4] | Hepatotoxicity (cytolytic) [5] | Hepatotoxicity (choleostasis) [6] | Hepatotoxicity (severe hepatitis) [7] | Hepatotoxicity (chronic liver disease) [8] | Hepatotoxicity (cirrhosis) [9] | Hepatotoxicity (granulomatous hepatitis) [10] | Hepatotoxicity (association with vascular disease) [11] | Hepatotoxicity (steatosis) [12] | Hepatotoxicity (malignant tumour) [13] | Hepatotoxicity (benign tumour) [14]
1: Hepatotoxicity (moderate) [3]
0%: Hepatotoxicity (acute) [2]
